The source of these data is patent US11331364B2, “Use for JNK inhibitor molecules for treatment of various diseases” (Xigen Inflammation Ltd., priority 2014, dated 2022).

In series [1] the test system is acute CYP-induced cystitis in female Sprague-Dawley rats. The experiment in a line: Cyclophosphamide-induced acute cystitis, intravesical treatment, visceral pain and bladder inflammation. It is filed as in vivo, rat. As to conditions: 50 mg/mL, i.ves. As for the experimental part:
This preclinical model is well-used to test therapeutic approaches for the treatment of interstitial cystitis/painful bladder syndrome (IC/PBS).
Animals were acclimatized to the laboratory conditions for at least 3 days before the start of any experiments. The animals were allocated to the following four experimental groups (n=10 animals per group):
To induce acute cystitis, a single i.p. injection of CYP at a dose of 150 mg/kg in a final volume of 5 mL/kg was performed. Control rats received physiological saline under the same experimental conditions as CYP (final volume of 5 mL/kg, i.p.).
On the day of each experiment, weight of rats was recorded.
Standardized conditions including fixed time-of-day (a.m. to minimize the potential circadian variations in the behaviours responses) and single-experimenter testing of all animals were applied to minimize variability behavior-based pain testing. Visceral pain including allodynia and hyperalgesia was evaluated by applying to the lower abdomen, close to the urinary bladder, a set of 8 calibrated von Frey filaments of increasing forces (1, 2, 4, 6, 8, 10, 26 and 60 g) with an interstimulus interval of 5 seconds. Prior testing, the abdominal area designed for mechanical stimulation of each animal was shaved. Animals were then placed on a raised wire mesh floor under individual transparent Plexiglas box and acclimatized for at least 30 minutes before starting the von Frey test. Filaments were then applied 1-2 seconds through the mesh floor with enough strength to cause the filament to slightly bend. Each filament was tested 3 times. Care was taken to stimulate different areas within the lower abdominal region in the vicinity of the urinary bladder to avoid desensitization.
Nociceptive behaviors were scored for each animal and each filament as follows:
The study design is schematically shown in FIG. 50 A. Birefly, acute cystitis was induced by CYP injection (i.p.) at Do (as described above).
Urinary bladders were rapidly collected and cleaned from lipoid tissue. Urinary bladders were weighed, cut at the bladder neck as well as oedema and haemorrhage scoring was performed (see table below). Finally, wall thickness was measured using a digital caliper by placing the bladder wall between the two outside jaws.

Series [2] has as its system endotoxins-induced uveitis albino rat model. The experiment in a line: Endotoxins-induced uveitis (EIU), single intravenous injection, clinical scoring. It is filed as in vivo. Set-up: key to clinical score (mean±SEM) / clinical score, median: clinical ocular inflammation score per eye, 0 to 4. As to conditions: sub-conjunctival, 20 Dg/eye; 24 h after LPS. How it is done: The anti-inflammatory potency of the JNK inhibitor of SEQ ID NO: 172 was tested in albino rats following intravenous administration (EIU/LPS model). The aim of this study was to determine the effects of single intravenous injections of SEQ ID NO: 172 (0.015, 0.18, and 1.80 mg/kg) on the inflammatory response in an endotoxins-induced uveitis albino rat model and to compare these affects to those obtained with prior art JNK inhibitor of SEQ ID NO: 197 (2 mg/kg). As a further control served phosphate sodic dexamethasone (“reference”) and vehicle (0.9% NaCl).
Sixty (60) male Lewis rats were randomly divided into six (6) groups often (10) animals each. 0.9% NaCl (vehicle, “control”), SEQ ID NO: 197 at 2 mg/kg and SEQ ID NO: 172 at three concentrations (1.80 mg/kg, 0.18 mg/kg and 0.015 mg/kg) were administered by intravenous injection just before EIU induction (on the day of induction). Accordingly, phosphate sodic dexamethasone (20 Dg/eye, 5 μl; “reference”) was administered by a single sub-conjunctival injection in both eyes just before EIU induction (on the day of induction). EIU was induced by footpad injection of lipopolysaccharide (LPS, 1 mg/kg). 24 hours after LPS injection, inflammatory response was evaluated by clinical scoring.
The intensity of clinical ocular inflammation was scored on a scale from 0 to 4 for each eye: […]

Series [3] relates to established type II collagen arthritis in rats. Nature of the series: Chronic established type II collagen arthritis, daily IV 14 days. Format: in vivo, rat. An excerpt:
Rat collagen arthritis is an experimental model of polyarthritis that has been widely used for preclinical testing of numerous anti-arthritic agents that are either under preclinical or clinical investigation or are currently used as therapeutics in this disease. […] Animals were terminated on arthritis day 14.

For series [4], the system named is Endotoxin-Induced Uveitis (EIU) model in rats. Nature of the series: Action duration in endotoxin-induced uveitis (EIU), clinical scoring and PMN cells quantification. Format: in vivo, rat. Conditions: 2 mg/kg i.v. immediately before EIU induction. As for the experimental part:
[…] (18) female Lewis rats (36 eyes) were randomly divided into 6 groups of 3 animals each. EIU was induced by a single footpad injection of 100 µl sterile pyrogen-free saline containing 200 µg of LPS (Lipopolysaccharides from Salmonella typhimurium, Sigma-Aldrich, France)(2 mg/ml).
Animals were treated 48 hours, 1 week, 2 weeks or 4 weeks before EIU induction by intravenous injection of the JNK inhibitor according to SEQ ID NO: 172 (“XG-104”) at a single dose of 1 mg/kg (dose volume 1 ml/kg) in the tail vein. Dexamethasone 2 mg/kg or vehicle (NaCl 0.9%) were injected intravenously immediately before EIU induction.
The effect of the JNK inhibitor according to SEQ ID NO: 172 (“XG-104”) on EIU was evaluated using clinical scoring and PMN cells quantification 24 hours after induction. Ocular examinations were performed by slit lamp at 24 hours i.e. at the clinical peak of the disease in this model. The intensity of clinical ocular inflammation was scored on a scale from 0 to 5 for each eye: • Grade 0: no inflammation, • Grade 1: presence of a minimal iris and conjunctival vasodilatation but without the observation of flare or cells in the anterior chamber (AC), • Grade 2: presence of moderate iris and conjunctival vessel dilation but without evident flare or cells in the AC, • Grade 3: presence of intense iris vessels dilation, flare and less than 10 cells per slit lamp, field in the AC, • Grade 4: presence of more severe clinical signs than grade 3, with more than 10 cells in the AC with or without the formation of a hypopyon, • Grade 5: presence of intense inflammatory reaction, fibrin formation in the AC and total seclusion of the pupil.
For histology, eighteen eyeballs (one per animal) were collected and fixed for 1 h at room temperature in phosphate buffered saline (PBS) containing 4% paraformaldehyde before being rinsed overnight in PBS. The next day, samples were embedded in optimal cutting temperature (OTC) compound (Tissue-Tek®, Sakura Finetek, Zoeterwoude, Netherland) and the optic nerve level using a cryostat (Leica CM 3050S, France) and mounted on super-frost slides for histology. After nuclei staining with DAPI (Sigma-Aldrich, France), sections were mounted in PBS/Glycerol (1/1) and observed by fluorescence photomicroscopy (FXA Microphot, Nikon, USA). Digitized micrographs were obtained usinga digital camera (Spot, BFI Optilas, France). PMN cells identified by the shape of their nuclei stained with DAPI, were quantified on histological sections. The analysis was performed with 2 different sections per eye at the optic nerve head level.
Twenty-four hours after LPS induction, clinical scores for the vehicle-treated rats were 4.6±0.2 (mean±SEM, n=8). Reduction was calculated as (grade in vehicle-treated eye—grade in test item treated eye)/(grade in vehicle-treated eye). A significant reduction (*p<0.05, **p<0.01) in the severity of the ocular inflammation was detected 24 hours after induction and intravenous treatment with the JNK inhibitor according to SEQ ID NO: 172 (“XG-104”) (1 mg/kg) administered 48 hours before EIU induction (mean score: 2.8±0.3), corresponding to a 40% (**) decrease of EIU scores compared with the score observed in vehicle group, 24 hours after induction and intravenous treatment with the JNK inhibitor according to SEQ ID NO: 172 (“XG-104”) (1 mg/kg) administered 1 week before EIU induction (mean score: 3.3±0.3), corresponding to a 27% (*) decrease of EIU scores compared with the score observed in vehicle group, and 24 hours after induction and intravenous treatment with the JNK inhibitor according to SEQ ID NO: 172 (“XG-104”) (1 mg/kg) administered 2 weeks before EIU induction (mean score: 3.0±0.2), corresponding to a 35% (**) decrease of EIU scores compared with the score observed in vehicle group. […]

The target of a further series is T1, hJNK1 (Homo sapiens, UniProt P45983).
T1 construct: His; purchased Upstate 14-327
Nature of the series: hJNK1 | IC50. Conditions: read-out: hJNK1 | IC50. An excerpt:
(§1) Table printed on a drawing sheet, Fig. 4
Head of the field: hJNK1 | IC50
(§2) The patent's description of the figure: FIG. 4: Table illustrating the inhibitory efficacy of several JNK inhibitors according to the present invention, which are fusion proteins of a JNK inhibitory (poly-)peptide sequence and a transporter sequence. Given are the IC50 values in the nM range, the respective standard error of the mean (SEM) and the number of experiments performed (n).
(§3) First copying reader's note: The sheet prints no unit for IC50 (the description says nM range); decimal commas are used, except for three IC50 cells printed with a point (3820.81, 5340.33, 8130.86).
Where the first naming reader finds the target: head: hJNK1 | IC50

In the next series the target is hJNK3 (Homo sapiens, UniProt P53779). Nature of the series: hJNK3 | IC50. Conditions: read-out: hJNK3 | IC50.
From the text: as §1
Head of the field: hJNK3 | IC50
as §2, §3
Where the first naming reader finds the target: head: hJNK3 | IC50

The target of a further series is hJNK2 (Homo sapiens, UniProt P45984). Nature of the series: hJNK2 | IC50. As to conditions: read-out: hJNK2 | IC50.
From the text: as §1
Head of the field: hJNK2 | IC50
as §2, §3
Where the first naming reader finds the target: head: hJNK2 | IC50

Setting [5] is: vs disease controls, IV QD d1-14, Dex 0.05 mg/kg, SEQ ID NO: 172 up to 5 mg/kg.

Square brackets hold non-standard residues; d marks the D form. Peptide text beside a SMILES is read from it.

T1 sequence (P45983 whole entry, looked up): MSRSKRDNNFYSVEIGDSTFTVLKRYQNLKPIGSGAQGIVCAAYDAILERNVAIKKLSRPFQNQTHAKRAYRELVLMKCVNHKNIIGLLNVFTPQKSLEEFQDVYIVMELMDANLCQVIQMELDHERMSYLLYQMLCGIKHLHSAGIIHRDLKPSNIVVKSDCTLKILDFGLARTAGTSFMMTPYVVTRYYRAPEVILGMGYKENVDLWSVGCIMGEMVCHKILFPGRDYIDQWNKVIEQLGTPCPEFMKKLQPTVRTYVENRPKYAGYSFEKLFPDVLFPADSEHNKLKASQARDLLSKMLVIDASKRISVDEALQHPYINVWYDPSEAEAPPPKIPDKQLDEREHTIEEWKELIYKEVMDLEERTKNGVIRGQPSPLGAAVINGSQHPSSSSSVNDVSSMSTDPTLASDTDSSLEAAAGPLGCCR
hJNK2, sequence (P45984 whole entry, looked up): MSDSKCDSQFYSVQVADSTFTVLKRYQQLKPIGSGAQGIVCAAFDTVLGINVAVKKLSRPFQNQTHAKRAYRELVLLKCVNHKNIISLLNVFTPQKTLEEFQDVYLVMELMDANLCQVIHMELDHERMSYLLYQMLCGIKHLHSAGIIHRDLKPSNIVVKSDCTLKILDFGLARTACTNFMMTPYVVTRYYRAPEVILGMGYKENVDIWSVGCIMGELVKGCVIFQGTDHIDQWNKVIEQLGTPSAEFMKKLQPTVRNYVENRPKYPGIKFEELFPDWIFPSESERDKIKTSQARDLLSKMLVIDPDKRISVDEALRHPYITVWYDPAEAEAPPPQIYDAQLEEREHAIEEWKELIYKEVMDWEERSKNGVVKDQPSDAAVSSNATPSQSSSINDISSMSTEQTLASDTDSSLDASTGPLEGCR
hJNK3, sequence (P53779 whole entry, looked up): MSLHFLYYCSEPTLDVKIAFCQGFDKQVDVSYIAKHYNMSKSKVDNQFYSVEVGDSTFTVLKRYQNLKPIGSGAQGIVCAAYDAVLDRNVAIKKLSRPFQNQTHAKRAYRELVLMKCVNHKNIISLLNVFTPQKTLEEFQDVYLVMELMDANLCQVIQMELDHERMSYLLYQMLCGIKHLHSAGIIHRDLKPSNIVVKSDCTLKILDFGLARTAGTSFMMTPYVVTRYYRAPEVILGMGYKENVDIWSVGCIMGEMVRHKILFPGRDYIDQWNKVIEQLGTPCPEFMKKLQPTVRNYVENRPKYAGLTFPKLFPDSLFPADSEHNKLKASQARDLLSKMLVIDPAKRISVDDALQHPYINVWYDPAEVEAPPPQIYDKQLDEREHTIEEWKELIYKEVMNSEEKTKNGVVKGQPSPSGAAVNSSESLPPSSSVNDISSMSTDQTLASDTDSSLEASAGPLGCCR

With `CC(C)Cc1ccc(C(C)C(=O)O)cc1` (stereo not drawn) [ibuprofen, reference compound], in series [1], the urine observation entry is given as “reddish urine was noticed for some animal”. In series [1] (24 h after CYP), the “haemorrhage scores vs vehicle” value is “no significant change”, the “nociceptive scores vs vehicle” value is recorded as “significant decrease”, the “nociceptive threshold vs vehicle” value is given as “significantly increased” and the “oedema scores vs vehicle” value is on record as “significant decrease”. Moreover, the “urinary bladder wall thickness vs vehicle” value in series [1] (24 h after CYP) was “significant decrease”.

Regarding `C[C@@H]1C[C@H]2[C@@H]3CCC4=CC(=O)C=C[C@]4(C)[C@@]3(F)[C@@H](O)C[C@]2(C)[C@@]1(O)C(=O)CO` [dexamethasone, reference compound], in series [2], the “clinical score (mean±SEM)” value was found to be 0.8±0.2 and the “clinical score, median” value turned out to be 0.5. Besides, in series [3] (0.05 mg/kg IV QD d1-14), the “ankle diameter AUC, reduction toward normal” value is 97% and the “inhibition of body weight loss vs disease controls” value is on record as 21%. Also, the “final paw weights, reduction toward normal” value in series [3] (Dex 0.05 mg/kg IV QD d1-14) is listed as 114%. Also, in series [3] (setting [5]), the “spleen weights relative to body weight” value is reported as “significantly (p<0.05 by ANOVA) reduced” and the “thymus weights relative to body weight” value is “significantly (p<0.05 by ANOVA) reduced”. Further, in series [4], the “clinical score (mean±SEM)” value was found to be 1.4±0.2 and the “decrease of clinical scores vs vehicle group” value was 69%.

`CC(C)C[C@H](NC(=O)[C@H](CC(N)=O)NC(=O)[C@H](CC(C)C)NC(=O)[C@@H](NC(=O)[C@@H](CCCCN)NC(=O)[C@@H]1CCCN1C(=O)[C@H](CCCNC(=N)N)NC(=O)[C@@H](CCCCN)NC(=O)[C@@H]1CCCN1C(=O)[C@H](CCCNC(=N)N)NC(=O)[C@@H](CCCNC(=N)N)NC(=O)[C@H](CCCNC(=N)N)NC(=O)[C@H](CCCNC(=N)N)NC(=O)[C@H](CCC(N)=O)NC(=O)[C@@H](CCCNC(=N)N)NC(=O)[C@H](CCCNC(=N)N)NC(=O)[C@H](CCCCN)NC(=O)[C@H](CCCCN)NC(=O)[C@H](N)CCCNC(=N)N)[C@@H](C)O)C(=O)N[C@H](Cc1ccccc1)C(N)=O` [SEQ ID NO: 187, rKKRrQRRrRPkRPkTLNLf] (H-[dR]KKR[dR]QRR[dR]RP[dK]RP[dK]TLNL[dF]-NH2): the IC50 (as a rule, the concentration at which inhibition is half-maximal) on hJNK1 came out at 594 nM; on hJNK3 it was 25.4 nM; on hJNK2 it was 37.9 nM.

As for `CC(C)C[C@H](NC(=O)[C@H](CC(=O)O)NC(=O)[C@@H](NC(=O)[C@@H]1CCCN1C(=O)[C@H](CCCNC(=N)N)NC(=O)[C@@H](CCCCN)NC(=O)[C@@H]1CCCN1C(=O)[C@H](CCCNC(=N)N)NC(=O)[C@@H](CCCNC(=N)N)NC(=O)[C@H](CCCNC(=N)N)NC(=O)[C@H](CCCNC(=N)N)NC(=O)[C@H](CCC(N)=O)NC(=O)[C@@H](CCCNC(=N)N)NC(=O)[C@H](CCCNC(=N)N)NC(=O)[C@H](CCCCN)NC(=O)[C@H](CCCCN)NC(=O)[C@H](N)CCCNC(=N)N)[C@@H](C)O)C(=O)N[C@@H](CC(N)=O)C(=O)N[C@@H](CC(C)C)C(=O)N[C@H](Cc1ccccc1)C(N)=O` [SEQ ID NO: 177, rKKRrQRRrRPkRPTDLNLf] (H-[dR]KKR[dR]QRR[dR]RP[dK]RPTDLNL[dF]-NH2), the IC50 came out at 355 nM at hJNK1, 45.4 nM on hJNK3 and 87.2 nM on hJNK2.
